Results as given in ChEMBL document CHEMBL1201862, “PubChem BioAssay data set” (2004).
The source made the active and inactive calls.

What was measured:
[1] = target: T1, Endoribonuclease toxin MazF (Escherichia coli K-12, UniProt P0AE70); experiment: substrate-only fluorescence increase artefacts – biochemical, single-stranded RNase substrate, counter-screen for MazEF activator project, dose response (AID 588502); type: functional
T1 sequence (P0AE70 whole entry): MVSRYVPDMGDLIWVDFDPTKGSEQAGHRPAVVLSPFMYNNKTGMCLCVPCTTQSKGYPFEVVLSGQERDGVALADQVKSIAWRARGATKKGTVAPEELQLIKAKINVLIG

[2] = target: T2, Ubiquitin-conjugating enzyme E2 N (Homo sapiens, UniProt P61088); type: functional;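 note: Dose-response confirmation in a TR-FRET assay detecting UBC13-driven polyubiquitin chain formation, inhibition measured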
T2 sequence (P61088 whole entry): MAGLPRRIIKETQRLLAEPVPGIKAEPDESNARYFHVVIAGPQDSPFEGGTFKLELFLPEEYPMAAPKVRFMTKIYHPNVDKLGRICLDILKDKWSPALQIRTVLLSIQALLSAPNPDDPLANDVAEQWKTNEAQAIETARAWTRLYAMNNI

[3] = viability of PTEN-deleted HCT116 cells – cell-based, HCT116 PTEN knockout, dose response (AID 1047); type: functional;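 note: HCT116 colon tumor cells with PTEN knocked out; cells exposed to compound for 60 hours before readout; potency for loss of cell viability measured by luminescence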
[4] = viability of HCT116 lacking mutant beta-catenin – cell-based, human colon tumor, dose response (AID 1045); type: functional;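 note: HCT116 colon tumor cells with beta catenin knocked out; cells exposed to compound for 60 hours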
[5] = target: T1, Endoribonuclease toxin MazF; experiment: activation of MazEF endoribonuclease cleavage – biochemical, fluorescence, single-stranded RNA substrate, uHTS hits, dose response (AID 588481); type: functional
[6] = target: Neurotensin receptor type 1 (Homo sapiens, UniProt P30989); type: functional;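 note: Image-based confirmatory dose-response assay measuring agonist activity at NTR1; NTR1-expressing U2OS osteosarcoma cells imaged for beta-arrestin GFP spot formation; agonist potency where compounds increase beta-arrestin recruitment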
Neurotensin receptor type 1, sequence (P30989 whole entry): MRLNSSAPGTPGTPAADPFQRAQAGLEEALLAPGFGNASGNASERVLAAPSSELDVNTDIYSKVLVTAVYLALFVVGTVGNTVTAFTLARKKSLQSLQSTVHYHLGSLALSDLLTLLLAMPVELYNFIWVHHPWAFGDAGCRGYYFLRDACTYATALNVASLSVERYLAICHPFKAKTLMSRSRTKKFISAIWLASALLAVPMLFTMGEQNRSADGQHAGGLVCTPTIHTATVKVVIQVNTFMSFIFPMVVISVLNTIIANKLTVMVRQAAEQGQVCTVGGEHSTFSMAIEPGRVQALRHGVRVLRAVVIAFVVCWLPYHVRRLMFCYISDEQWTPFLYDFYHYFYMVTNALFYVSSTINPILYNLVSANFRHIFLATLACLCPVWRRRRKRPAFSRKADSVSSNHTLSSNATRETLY

[7] = target: G-protein coupled receptor 55 (Homo sapiens, UniProt Q9Y2T6); experiment: selective activators of receptor GPR55 – imaging, U2OS cells, beta-arrestin-GFP redistribution, primary screen (AID 1961); type: functional
G-protein coupled receptor 55, sequence (Q9Y2T6 whole entry, the tested form may be a part): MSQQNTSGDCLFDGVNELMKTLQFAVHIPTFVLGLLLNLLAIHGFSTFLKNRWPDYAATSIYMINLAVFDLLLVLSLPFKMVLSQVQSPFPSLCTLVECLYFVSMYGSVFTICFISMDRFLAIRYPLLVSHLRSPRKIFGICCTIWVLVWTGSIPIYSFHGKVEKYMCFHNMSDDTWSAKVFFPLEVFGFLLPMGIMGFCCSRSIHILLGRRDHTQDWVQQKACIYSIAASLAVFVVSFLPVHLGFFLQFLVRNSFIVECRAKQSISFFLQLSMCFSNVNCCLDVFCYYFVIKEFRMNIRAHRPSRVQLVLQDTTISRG

[8] = target: Arf-GAP with SH3 domain, ANK repeat and PH domain-containing protein 1 (Homo sapiens, UniProt Q9ULH1); type: functional;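 note: biochemical fluorescence polarization dose–response screen measuring inhibition of ASAP1; ASAP1 GAP domain stimulating GTP hydrolysis by truncated human ARF1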
Arf-GAP with SH3 domain, ANK repeat and PH domain-containing protein 1, sequence (Q9ULH1 whole entry, the tested form may be a part): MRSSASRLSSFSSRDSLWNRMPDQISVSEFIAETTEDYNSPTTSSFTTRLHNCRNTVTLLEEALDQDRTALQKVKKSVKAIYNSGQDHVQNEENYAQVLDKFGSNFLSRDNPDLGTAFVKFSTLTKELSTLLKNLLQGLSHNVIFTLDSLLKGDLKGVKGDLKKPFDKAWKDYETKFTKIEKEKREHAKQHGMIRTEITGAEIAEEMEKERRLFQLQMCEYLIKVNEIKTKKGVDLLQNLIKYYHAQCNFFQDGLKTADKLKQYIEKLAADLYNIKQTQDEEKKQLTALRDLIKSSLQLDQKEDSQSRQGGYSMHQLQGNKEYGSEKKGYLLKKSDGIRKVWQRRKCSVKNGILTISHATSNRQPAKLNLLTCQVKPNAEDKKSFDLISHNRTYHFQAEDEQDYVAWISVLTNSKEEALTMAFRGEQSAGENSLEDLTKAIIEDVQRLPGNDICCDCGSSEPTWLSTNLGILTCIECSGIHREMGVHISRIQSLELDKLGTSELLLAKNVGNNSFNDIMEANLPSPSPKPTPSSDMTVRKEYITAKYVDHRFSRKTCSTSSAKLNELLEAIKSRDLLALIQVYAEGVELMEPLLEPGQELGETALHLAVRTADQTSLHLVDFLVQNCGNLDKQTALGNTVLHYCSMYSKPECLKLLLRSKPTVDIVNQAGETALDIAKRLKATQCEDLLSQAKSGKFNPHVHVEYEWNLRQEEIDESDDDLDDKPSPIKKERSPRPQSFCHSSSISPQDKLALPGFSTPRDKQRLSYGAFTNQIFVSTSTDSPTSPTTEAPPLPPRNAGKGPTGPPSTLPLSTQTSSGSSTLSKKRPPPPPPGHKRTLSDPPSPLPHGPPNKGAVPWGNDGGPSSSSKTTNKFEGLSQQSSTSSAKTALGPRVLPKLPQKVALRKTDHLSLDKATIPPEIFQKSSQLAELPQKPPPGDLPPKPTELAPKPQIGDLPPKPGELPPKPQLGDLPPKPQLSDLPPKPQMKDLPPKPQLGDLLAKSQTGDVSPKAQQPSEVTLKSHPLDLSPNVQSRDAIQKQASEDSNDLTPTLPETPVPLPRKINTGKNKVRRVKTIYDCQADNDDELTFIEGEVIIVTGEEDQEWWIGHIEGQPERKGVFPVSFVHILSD

[9] = target: T3, Coagulation factor XII (Homo sapiens, UniProt P00748); experiment: Factor XIIa Dose Response Confirmation from Single Well HTS. [Related pubchem assays (depositor defined):AID701]; type: functional
T3 sequence (P00748 whole entry): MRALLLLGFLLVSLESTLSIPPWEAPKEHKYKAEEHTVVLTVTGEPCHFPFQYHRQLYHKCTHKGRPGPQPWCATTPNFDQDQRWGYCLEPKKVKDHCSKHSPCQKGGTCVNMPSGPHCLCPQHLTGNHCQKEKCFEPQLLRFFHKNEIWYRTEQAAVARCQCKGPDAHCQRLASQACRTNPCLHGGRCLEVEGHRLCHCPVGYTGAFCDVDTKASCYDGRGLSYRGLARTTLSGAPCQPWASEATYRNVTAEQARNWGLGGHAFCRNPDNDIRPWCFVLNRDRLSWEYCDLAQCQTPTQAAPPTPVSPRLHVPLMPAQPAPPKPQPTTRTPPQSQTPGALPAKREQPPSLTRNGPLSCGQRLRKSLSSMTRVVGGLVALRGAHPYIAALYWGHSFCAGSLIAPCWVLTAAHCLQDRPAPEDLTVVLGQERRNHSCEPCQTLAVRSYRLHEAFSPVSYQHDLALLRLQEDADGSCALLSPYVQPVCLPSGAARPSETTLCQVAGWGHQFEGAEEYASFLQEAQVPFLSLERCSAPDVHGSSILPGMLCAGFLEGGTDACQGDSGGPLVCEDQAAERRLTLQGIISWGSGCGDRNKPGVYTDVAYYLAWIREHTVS

[10] = target: T4, Tyrosine-protein phosphatase non-receptor type 7 (Homo sapiens, UniProt P35236); experiment: SAR analysis of chemical inhibitors of HePTP using a Fluorescent assay - Set 2. [Related pubchem assays (depositor defined):AID1059, AID1077, AID1661, AID2085, AID521]; type: functional
T4 sequence (P35236 whole entry): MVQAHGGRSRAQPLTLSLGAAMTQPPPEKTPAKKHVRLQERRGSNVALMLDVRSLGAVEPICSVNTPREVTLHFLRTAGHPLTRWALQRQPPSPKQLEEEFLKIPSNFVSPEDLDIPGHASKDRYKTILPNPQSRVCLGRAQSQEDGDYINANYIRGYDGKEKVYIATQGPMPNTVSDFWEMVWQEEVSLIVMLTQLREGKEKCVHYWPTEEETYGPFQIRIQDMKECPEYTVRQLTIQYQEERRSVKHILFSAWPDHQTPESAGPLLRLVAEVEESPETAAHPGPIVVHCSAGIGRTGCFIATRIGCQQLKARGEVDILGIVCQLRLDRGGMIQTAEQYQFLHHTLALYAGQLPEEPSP

[11] = target: Dual specificity protein phosphatase 3 (Homo sapiens, UniProt P51452); experiment: SAR VHR1 Fluorescent Assay for In Vitro dose response studies Set 2. [Related pubchem assays (depositor defined):AID1654, AID1661, AID1878]; type: functional
Dual specificity protein phosphatase 3, sequence (P51452 whole entry): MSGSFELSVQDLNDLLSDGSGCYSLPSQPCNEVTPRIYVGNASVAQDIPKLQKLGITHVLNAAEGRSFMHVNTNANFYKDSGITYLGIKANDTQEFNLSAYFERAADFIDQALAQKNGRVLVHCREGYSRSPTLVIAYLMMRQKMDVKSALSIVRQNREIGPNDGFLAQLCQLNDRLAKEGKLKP

[12] = target: CAAX prenyl protease 2 (Saccharomyces cerevisiae S288c, UniProt Q03530); type: biochemical
CAAX prenyl protease 2 (Saccharomyces cerevisiae S288c, UniProt Q03530), sequence (Q03530 whole entry): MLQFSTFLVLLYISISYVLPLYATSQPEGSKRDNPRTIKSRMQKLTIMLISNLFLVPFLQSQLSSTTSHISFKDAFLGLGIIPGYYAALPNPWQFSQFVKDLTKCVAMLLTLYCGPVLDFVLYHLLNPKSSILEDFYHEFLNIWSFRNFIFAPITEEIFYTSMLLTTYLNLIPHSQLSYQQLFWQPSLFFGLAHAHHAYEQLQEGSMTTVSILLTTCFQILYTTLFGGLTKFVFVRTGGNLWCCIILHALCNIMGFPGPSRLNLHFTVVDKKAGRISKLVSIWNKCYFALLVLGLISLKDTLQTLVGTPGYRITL

[13] = target: Intestinal-type alkaline phosphatase (Homo sapiens, UniProt P09923); experiment: Dose Response confirmation of uHTS hits from a small molecule inhibitors of human intestinal alkaline phosphatase via a luminescent assay. [Related pubchem assays (depositor defined):AID2544, AID2574]; type: functional
Intestinal-type alkaline phosphatase, sequence (P09923 whole entry): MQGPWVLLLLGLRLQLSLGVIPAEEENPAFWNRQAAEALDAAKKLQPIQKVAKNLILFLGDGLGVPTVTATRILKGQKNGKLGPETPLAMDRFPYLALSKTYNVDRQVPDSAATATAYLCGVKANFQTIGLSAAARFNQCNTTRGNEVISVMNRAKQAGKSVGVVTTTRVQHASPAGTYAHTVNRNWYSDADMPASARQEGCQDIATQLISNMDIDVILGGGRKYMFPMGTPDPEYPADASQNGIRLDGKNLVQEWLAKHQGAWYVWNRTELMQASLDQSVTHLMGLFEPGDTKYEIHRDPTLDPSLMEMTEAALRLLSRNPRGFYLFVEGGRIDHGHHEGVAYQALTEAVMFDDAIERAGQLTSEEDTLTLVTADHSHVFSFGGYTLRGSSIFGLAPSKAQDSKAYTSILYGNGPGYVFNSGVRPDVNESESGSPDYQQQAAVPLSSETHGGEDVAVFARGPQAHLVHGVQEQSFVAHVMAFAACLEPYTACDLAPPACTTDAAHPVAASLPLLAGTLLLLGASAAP

[14] = target: Trypsin (Sus scrofa, UniProt P00761); experiment: trypsin protease activity blockade – biochemical, quenched peptide fluorescence, cherry-pick, selectivity assay for Rce1 protease inhibitor project, dose response (AID 488789)
Trypsin, sequence (P00761 whole entry): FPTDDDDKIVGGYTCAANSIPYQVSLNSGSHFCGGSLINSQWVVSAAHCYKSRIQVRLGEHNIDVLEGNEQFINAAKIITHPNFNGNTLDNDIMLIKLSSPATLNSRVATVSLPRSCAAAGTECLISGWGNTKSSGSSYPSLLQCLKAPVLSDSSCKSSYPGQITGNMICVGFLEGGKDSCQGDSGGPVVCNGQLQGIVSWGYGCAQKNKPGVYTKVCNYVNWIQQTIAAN

[15] = target: CAAX prenyl protease 2 (Homo sapiens, UniProt Q9Y256); experiment: inhibition of Ras-converting CAAX protease Rce1 – biochemical, yeast membranes, quenched-peptide fluorescence, cherry-pick, dose response (AID 588849)
CAAX prenyl protease 2 (Homo sapiens, UniProt Q9Y256), sequence (Q9Y256 whole entry): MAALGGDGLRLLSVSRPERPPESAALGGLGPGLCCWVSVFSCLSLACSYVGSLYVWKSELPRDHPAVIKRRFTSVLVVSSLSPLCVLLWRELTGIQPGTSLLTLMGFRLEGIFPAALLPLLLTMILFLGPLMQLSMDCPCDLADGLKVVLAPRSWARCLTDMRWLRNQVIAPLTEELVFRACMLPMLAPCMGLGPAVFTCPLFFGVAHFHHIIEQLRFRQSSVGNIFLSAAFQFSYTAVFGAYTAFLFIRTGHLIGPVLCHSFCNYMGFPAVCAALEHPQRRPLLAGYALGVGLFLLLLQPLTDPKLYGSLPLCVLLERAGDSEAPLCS

COc1cc2c3nnc(-c4ccc(F)cc4)c-3cn(Cc3ccccc3)c2cc1OC
EC50 [1]: > 99 µM (inactive)
IC50 [2]: > 20 µM (inactive)
EC50 [3]: 5.91 µM (active)
EC50 [4]: 5.84 µM (active)
EC50 [5]: > 99 µM (inactive)
EC50 [6]: 2.91 µM (active)
EC50 [7]: 0.921 µM (active)
IC50 [8]: 19.2 µM (inactive)

O=C(Oc1nsnc1N1CCOCC1)c1ccccc1
IC50 [9]: 4.38 µM (active)

Cc1ccc(-n2c(N)c(C(=O)N3CCOCC3)sc2=S)cc1
IC50 [10]: > 100 µM (inactive)
IC50 [11]: > 100 µM (inactive)

CS(=O)(=O)Nc1ccccc1C(=O)NC1CC2CCC1C2 (stereo not given)
AC50 [12]: 3.03 µM (active)

Cc1cccc(SCc2noc(C(=O)NCC3CCCO3)c2C(=O)O)c1 (stereo not given)
IC50 [13]: > 100 µM (inactive)

Cc1csc(NC(=O)c2ccccc2O)n1
AC50 [14]: > 100 µM (inactive)
AC50 [15]: 19.3 µM (active)
